# Experimental data published in patent US5075322A, “Selenophen derivatives, a preparation process of the same and therapeutical compositions containing them” (Societe de Conseils de Recherches et d'Applications …, priority 1989, dated 1991).
# Columns and labels:
# [1] = test system: ovalbumine-induced bronchospasm; experiment: ovalbumine-induced bronchoconstriction in passively sensitized rats; type: in vivo; conditions: for Percentage of bronchoconstriction / Percentage of effect: Table IV
# Text: (§1) The different symbols NS, *, ** and *** which may be found in the different tables, mean that the result is respectively not significative, significative, very significative and highly significative.
# [2] = test system: B.S.A.-induced immune lethality in mice; experiment: B.S.A.-induced immune lethality (anaphylactic shock) in actively sensitized mice; type: in vivo
# Text: as §1
# At the same dose, ketotifen has no effect.
# PAF induced bronchospasm = experiment: PAF-induced bronchospasm in artificially-ventilated anaesthetized guinea pigs; type: in vivo; conditions: for Percentage of bronchoconstriction / Percentage of effect: Table VII, PAF 60 mg/kg IV
# Text: as §1
# rat washed platelets = experiment: PAF-induced aggregation of rat washed platelets in vitro; type: cell-based; conditions: Platelet, PAF 5.10^-10 M
# Text: In vitro: effects on aggregation (IC50) induced by PAF (5·10^-10 M), rat washed platelets are as follow: IC50 Compound XI 2.10^-6 M. IC50 Ketotifen 10^-5 M.
# [3] = test system: ovalbumine-induced bronchospasm; experiment: ovalbumine-induced bronchospasm in actively sensitized guinea pigs; type: in vivo; conditions: Table III, 0.1 mg/kg PO
# Text: as §1
# [4] = test system: ovalbumine-induced bronchospasm; experiment: ovalbumine-induced bronchospasm in anaesthetized passively sensitized guinea-pigs; type: in vivo
# Description: In the ovalbumine-induced bronchospasm in anaesthetized passively sensitized guinea-pigs, compound XI and ketotifen, administered 1 hour before the injection of ovalbumine, inhibit the bronchoconstriction (>90%) in a dose-dependant-manner respectively with following ED50 (P.O.)
# For both products, the activity disappears at 24 hours.
# The kinetic results, after administration by oral route of the said compounds at 0.1 mg/kg and 0.05 mg/kg (P.O.), for 1 to several hours before ovalbumine injection (1 mg/kg), are reported respectively in tables 1 and 2.
# as §1
# [5] = test system: histamine induced bronchospasm; experiment: histamine-induced bronchospasm in artificially ventilated anaesthetized guinea pigs; type: in vivo; conditions: Cavia porcellus, po; administered 1 hour before histamine (15 mg IV), P.O.; read-out: ED 50 (P.O.)
# [6] = test system: histamine induced bronchospasm; experiment: as above; type: in vivo; conditions: for % of bronchoconstriction / % of effect: Table V, 0.1 mg/kg PO
# Description: as §1
# The kinetic results of the administration of compound XI and ketotifen by oral route at 0.1 mg/kg (P.O.), 1 to 27 h histamine injection (15 mg IV), are reported in table 5.
# [7] = Table I, 0.1 mg/kg PO, pretreatment 1 h
# [8] = Table I, 0.1 mg/kg PO, pretreatment 3 h
# [9] = Table I, 0.1 mg/kg PO, pretreatment 6 h
# [10] = Table I, 0.1 mg/kg PO, pretreatment 9 h
# [11] = Table I, 0.1 mg/kg PO, pretreatment 15 h
# [12] = Table I, 0.1 mg/kg PO, pretreatment 18 h
# [13] = Table I, 0.1 mg/kg PO, pretreatment 21 h
# [14] = Table I, 0.1 mg/kg PO, pretreatment 24 h
# [15] = Table II, 0.05 mg/kg PO, pretreatment 1 h
# [16] = Table II, 0.05 mg/kg PO, pretreatment 3 h
# [17] = Table II, 0.05 mg/kg PO, pretreatment 6 h
# [18] = Table II, 0.05 mg/kg PO, pretreatment 9 h
# [19] = Table II, 0.05 mg/kg PO, pretreatment 15 h
# [20] = Table II, 0.05 mg/kg PO, pretreatment 18 h
# [21] = Table II, 0.05 mg/kg PO, pretreatment 21 h
compound,measurement,setting,value
COc1ccc(CCN2CCC(Nc3nc4ccccc4n3Cc3ccc(F)cc3)CC2)cc1 [Astemizole],Percentage of bronchoconstriction,[1]; 5 mg/kg PO,8.6 ± 2.5%
same,Percentage of effect,[1]; 5 mg/kg PO,-76.0%
c1ccc2c(c1)Sc1ccccc1N2CC1CN2CCC1CC2 (stereo not drawn) [Mequitazine],"Mortality at 24 hours, % of mortality",[2]; 2.5 mg/kg PO,30%
same,"Mortality at 24 hours, % of variation",[2]; 2.5 mg/kg PO,-51.2%
same,"Mortality at 24 hours, number of killed",[2]; 2.5 mg/kg PO,3/10
same,"Mortality at 24 hours, % of mortality",[2]; 10 mg/kg PO,30%
same,"Mortality at 24 hours, % of variation",[2]; 10 mg/kg PO,-51.2%
same,"Mortality at 24 hours, number of killed",[2]; 10 mg/kg PO,3/10
CN1CCC(=C2c3ccccc3CC(=O)c3sccc32)CC1 [ketotifen],inhibition of PAF induced bronchospasm (in words),"PAF induced bronchospasm; 1 hour before PAF, 0.1 mg/kg",less active
same,Percentage of bronchoconstriction,PAF induced bronchospasm; 0.1 mg/kg PO,63.5 ± 9.6%
same,Percentage of effect,PAF induced bronchospasm; 0.1 mg/kg PO,-18.9%
same,Percentage of bronchoconstriction,PAF induced bronchospasm; 1 mg/kg PO,26.2 ± 14.8%
same,Percentage of effect,PAF induced bronchospasm; 1 mg/kg PO,-66.5%
same,IC50,rat washed platelets,10 µM
same,Percentage of bronchoconstriction,[1]; 0.1 mg/kg PO,24.7 ± 5.1%
same,Percentage of effect,[1]; 0.1 mg/kg PO,-31.0%
same,Percentage of bronchoconstriction,[1]; 1 mg/kg PO,46.3 ± 11.0%
same,Percentage of effect,[1]; 1 mg/kg PO,+29.3%
same,inhibition of bronchoconstriction (in words),[1]; passively sensitized rats,has no effect
same,"Mortality at 24 hours, % of mortality",[2]; 0.250 mg/kg PO,50%
same,"Mortality at 24 hours, % of variation",[2]; 0.250 mg/kg PO,-18.7%
same,"Mortality at 24 hours, number of killed",[2]; 0.250 mg/kg PO,5/10
same,protective effect (in words),[2]; 0.275 mg/kg P.O.,has no effect
same,"Mortality at 24 hours, % of mortality",[2]; 0.500 mg/kg PO,40%
same,"Mortality at 24 hours, % of variation",[2]; 0.500 mg/kg PO,-35%
same,"Mortality at 24 hours, number of killed",[2]; 0.500 mg/kg PO,4/10
same,% of bronchoconstriction,[3]; pretreatment 1 h,3.6 ± 1.2%
same,% of effect,[3]; pretreatment 1 h,-95.8 ± 1.4%
same,% of bronchoconstriction,[3]; pretreatment 3 h,3.3 ± 0.5%
same,% of effect,[3]; pretreatment 3 h,-95.6 ± 0.7%
same,% of bronchoconstriction,[3]; pretreatment 6 h,42.1 ± 19.3%
same,% of effect,[3]; pretreatment 6 h,-43.9 ± 25.8%
same,% of bronchoconstriction,[3]; pretreatment 9 h,83.2 ± 16.1%
same,% of effect,[3]; pretreatment 9 h,-8.8 ± 17.6%
same,% of bronchoconstriction,[3]; pretreatment 15 h,77.5 ± 14.8%
same,% of effect,[3]; pretreatment 15 h,-9.0 ± 17.4%
same,% of bronchoconstriction,[3]; pretreatment 18 h,64.5 ± 19.5%
same,% of effect,[3]; pretreatment 18 h,+17.9 ± 35.7%
same,% of bronchoconstriction,[3]; pretreatment 21 h,73.6 ± 15.5%
same,% of effect,[3]; pretreatment 21 h,+34.4 ± 28.5%
same,time at which the activity disappears,[4]; 0.1 mg/kg and 0.05 mg/kg P.O.,24 h
same,ED50,"[4]; Cavia porcellus, po, administered 1 hour before ovalbumine, P.O., passively sensitized guinea-pigs, read-out: ED50 (P.O.)",0.0941 µmol/kg
same,% of bronchoconstriction,[4]; [7],8.3 ± 3.2%
same,% of effect,[4]; [7],-90.2 ± 3.8%
same,% of bronchoconstriction,[4]; [8],7.3 ± 3.0%
same,% of effect,[4]; [8],-88.3 ± 4.8%
same,% of bronchoconstriction,[4]; [9],31.9 ± 17.9%
same,% of effect,[4]; [9],-48.8 ± 28.8%
same,% of bronchoconstriction,[4]; [10],66.9 ± 19.7%
same,% of effect,[4]; [10],-25.1 ± 22.0%
same,% of bronchoconstriction,[4]; [11],77.5 ± 10.6%
same,% of effect,[4]; [11],-5.9 ± 13.3%
same,% of bronchoconstriction,[4]; [12],54.0 ± 18.6%
same,% of effect,[4]; [12],-44.3 ± 19.2%
same,% of bronchoconstriction,[4]; [13],88.3 ± 7.6%
same,% of effect,[4]; [13],-8.8 ± 7.9%
same,% of bronchoconstriction,[4]; [14],67.3 ± 15.0%
same,% of effect,[4]; [14],+8.3 ± 24.0%
same,% of bronchoconstriction,[4]; [15],44.9 ± 15.9%
same,% of effect,[4]; [15],-49.2%
same,% of bronchoconstriction,[4]; [16],5.7 ± 1.7%
same,% of effect,[4]; [16],-93.6%
same,% of bronchoconstriction,[4]; [17],82.9 ± 14.0%
same,% of effect,[4]; [17],-14.3%
same,% of bronchoconstriction,[4]; [18],80.3 ± 19.7%
same,% of effect,[4]; [18],-17.1%
same,% of bronchoconstriction,[4]; [19],64.3 ± 18.3%
same,% of effect,[4]; [19],-2.4%
same,% of bronchoconstriction,[4]; [20],100 ± 0%
same,% of effect,[4]; [20],+2.0%
same,% of bronchoconstriction,[4]; [21],94.4 ± 3.2%
same,% of effect,[4]; [21],-3.2%
same,inhibition of bronchoconstriction,"[4]; administered 1 hour before ovalbumine, P.O., dose-dependent",> 90%
same,ED50,[5],0.0635 µmol/kg
same,% of bronchoconstriction,[6]; 1 h,2.1 ± 0.8%
same,% of effect,[6]; 1 h,-97.4 ± 1.0%
same,% of bronchoconstriction,[6]; 3 h,0%
same,% of effect,[6]; 3 h,-100 ± 0%
same,% of bronchoconstriction,[6]; 6 h,18.2 ± 13.3%
same,% of effect,[6]; 6 h,-77.8 ± 16.2%
same,% of bronchoconstriction,[6]; 9 h,22.1 ± 14.1%
same,% of effect,[6]; 9 h,-71.5 ± 14.1%
same,% of bronchoconstriction,[6]; 15 h,51.4 ± 16.7%
same,% of effect,[6]; 15 h,-26.9 ± 16.7%
same,% of bronchoconstriction,[6]; 18 h,54.6 ± 13.3%
same,% of effect,[6]; 18 h,-39.8 ± 14.8%
same,% of bronchoconstriction,[6]; 21 h,46.6 ± 14.9%
same,% of effect,[6]; 21 h,-44.9 ± 17.6%
same,% of bronchoconstriction,[6]; 24 h,63.7 ± 15.1%
same,% of effect,[6]; 24 h,-3.0 ± 23.1%
same,% of bronchoconstriction,[6]; 27 h,83.4 ± 5.9%
same,inhibition of bronchoconstriction (in words),[6]; administered 1 hour before histamine (15 mg IV),inhibit significantly the bronchoconstriction in a dose-dependant-manner
same,duration of maximum effect,"[6]; during only the first hours, 0.1 mg/kg P.O.",3 h
